Values of other authors in patent US6486152B1, “Topical carbamazepine formulations and methods of use” (Taro Pharmaceutical Industries Ltd., priority 1997, dated 2002).

What was measured:
psoriatic erythroderma = conditions: HIV positive patient

## NC(=O)N1c2ccccc2C=Cc2ccccc21 [Carbamazepine, 5-carbamoyl-5H-dibenz[b,f]azepine]
Psoriatic erythroderma; accidentally ingested 200-400 mg/day for two weeks
  psoriatic erythroderma condition during first intake: exhibited improvement
Psoriatic erythroderma; after they stopped taking the medication
  psoriatic erythroderma condition after stopping the medication: flared up again
Psoriatic erythroderma; intentionally took the medication a second time
  psoriatic erythroderma condition on second intake: improved once again
Psoriatic erythroderma; systemic (ingested) carbamazepine
  mood: affected
acetone
  solubility in acetone: soluble
alcohols
  solubility in alcohols: soluble
Propylene glycol
  solubility in propylene glycol: soluble
water
  solubility in water: practically insoluble
